Test results from EP1914236A1 (Ortho-McNeil Pharmaceutical, Inc., priority 2002, dated 2003).
Like-named read-outs stand apart in the source and are kept apart here.

Tests used:
[1] = Graded Abdominal Irritant Test (GrAIT); format: in vivo; conditions: for % Inhibition: 30 minutes before kaolin (100 mg/kg intraperitoneally), responses counted for 15 minutes, dose not given; for ED50: log dose regression analysis
Description: The Graded Abdominal Irritant Test (GrAIT) is a modification of the methods described by Koster et al. (Koster R., Anderson M and DeBeer E. J. Fed. Proc. 1959, 18, 412). Prior to the test (30 minutes for oral or subcutaneous administration), each animal was administered a known analgesic, a test compound, or vehicle (0.05N HCl) by one of two routes (oral or subcutaneous).
Kaolin (100 mg/kg) was injected intraperitoneally (using a standard 23G needle) at a volume of 10mL/kg of body weight. Following the administration of the chemical agent, the animals were placed in glass bell jars (approximately 15cm in diameter with wood chips on the bottom). […] A contraction of the abdominal musculature and an elongation of the body, which extends through to the hindlimbs, characterize this response. The responses were counted during the 15-minute time period after the injection of the kaolin. A mechanical counter or a personal computer was used to collect the number of counts per animal, and animals were observed no more than 5 at a time.
The mean number of counts (±SEM) for a group of animals receiving a known analgesic or test compound was compared to the mean for the group of animals which received only vehicle pretreatment (Control group). For each dose, % inhibition of the response was calculated. For each test compound, the EDso value was calculated using a log dose regression analysis program (PharmTools software).

[2] = molecular target: T1, human B2 bradykinin receptors (Homo sapiens, UniProt P30411); assay: Bradykinin B2 (BK2) Receptor Binding Assay
T1 construct: purchased Receptor Biology, Inc. (Baltimore, MD); host or cells: CHO-K1 cells transfected with the human B2 receptor (membranes)
T1 sequence (P30411 1-391): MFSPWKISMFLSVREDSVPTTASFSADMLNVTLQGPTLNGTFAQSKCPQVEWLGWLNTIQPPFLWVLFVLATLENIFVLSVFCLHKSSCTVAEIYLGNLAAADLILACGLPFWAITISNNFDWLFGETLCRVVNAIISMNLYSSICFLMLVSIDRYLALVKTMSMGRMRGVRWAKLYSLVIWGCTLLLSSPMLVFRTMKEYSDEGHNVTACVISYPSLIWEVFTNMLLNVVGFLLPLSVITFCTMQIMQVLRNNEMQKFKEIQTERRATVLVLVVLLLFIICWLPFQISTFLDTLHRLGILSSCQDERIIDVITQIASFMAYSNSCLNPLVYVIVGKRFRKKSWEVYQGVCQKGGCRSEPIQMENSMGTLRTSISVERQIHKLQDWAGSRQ
How it was run: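 Membranes came from CHO-K1 cells expressing human B2 receptors; bound radioligand was collected by filtration and washed with cold 10 mM HEPES, pH 7.5. Single concentrations gave % inhibition of specific binding, and concentration ranges gave Ki values.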

CHO-hB2 cell membranes = molecular target: T2, CHO-hB2 cell membranes (Homo sapiens, UniProt P30411); assay: [35S]GTPγS Binding Assay in CHO-hB2 Cell Membranes; format: biochemical
T2 construct: purchased Receptor Biology, Inc. (Baltimore, MD); host or cells: CHO-hB2 cells (membranes)
T2 sequence (P30411 1-391): T1 sequence (P30411 1-391)
Description: CHO-hB2 cell membranes were purchased from Receptor Biology, Inc. (Baltimore,MD). 10 mg/mL of membrane protein was suspended in 10 mM TRIS-HC pH 7.2, 2 mM EDTA, 10% sucrose.
Membranes were added into 15 mL ice cold binding assay buffer. The assay buffer contained 50 mM HEPES, pH 7.6, 5 mM MgCl2, 100 mM NaCl, 1 mM DTT and 1 mM EDTA. The membrane suspension was homogenized twice with a Polytron and centrifuged at 3000 rpm for 10 min. The supernatant was then centrifuged at 18,000 rpm for 20 min. The pellet was saved in a tube and resuspended.
The pellet membranes (40 µg/mL) were preincubated with SPA (scintillation proximity assay) beads (20 mg/mL) at 25C° for 45 min in the assay buffer. The SPA beads (5 mg/mL) coupled with membranes (10 µg/mL) were then incubated with 0.5 nM [^35S]GTPγS in the same HEPES buffer containing 50 µM GDP in total volume of 200 µL. Bradykinin was used to stimulate [^35S]GTPγS binding. Varying concentrations of drugs were incubated with bradykinin to inhibit bradykinin-stimulated [^35S]GTPγS binding. The basal binding was tested in the absence of bradykinin and no specific binding was tested in the present 10 µM unlabeled GTPγS. The radioactivity was quantified on a Packard Top Count, and calculated. % of Basal = (stimulated binding-non specific binding)/(basal binding-non specific binding) × 100. [formula]

[3] = membranes of CHO-K1 cells transfected with human B2 bradykinin receptors, ~0.25 nM [3H]NPC17731, 60 min at 25°C
[4] = number in parentheses, bradykinin-stimulated [35S]GTPγS binding, test concentration not given
[5] = word part of the cell, effect on bradykinin-stimulated [35S]GTPγS binding

SMILES | % Inhibition ([1]; po) | ED50 ([1]; po) | % Inhibition ([1]; sc) | Ki [2, 3] | Functional Activity (% Basal) (CHO-hB2 cell membranes; [4]) | Functional Activity (CHO-hB2 cell membranes; [5]) | Ki [2] | Functional Activity (CHO-hB2 cell membranes) | Functional Activity (% Basal) (CHO-hB2 cell membranes)
Cc1ccc2cccc(OCc3c(Cl)ccc(N(C)C(=O)Cc4ccc(C(=O)c5ccc(Cl)nc5)n4C)c3Cl)c2n1 [Compound 67, 2-[5-(6-Chloro-pyridine-3-carbonyl)-1-methyl-1H-pyrrol-2-yl]-N-[2,4-dichloro-3-(2-methyl-quinolin-8-yloxymethyl)-phenyl]-N-methyl-acetamide] | 78% | 68.8 µmol/kg | 100% | 194 nM | 55 % Basal | Antagonist | – | – | –
Cc1ccc2cccc(OCc3c(C)ccc(N(C)C(=O)CCc4ccc(C(=O)c5ccc(Cl)nc5)n4C)c3C)c2n1 [Compound 88] | -24% | – | 96% | 126 nM | 41 % Basal | Antagonist | – | – | –
CCN(C(=O)Cc1ccc(C(=O)c2ccc(Cl)nc2)n1C)c1ccc(Cl)c(COc2cccc3ccc(C)nc23)c1Cl [Compound 17] | -1% | – | 47% | 342 nM | 1 % Basal | No effect | – | – | –
CCN(C(=O)Cc1ccc(C(=O)c2ccc(C#N)cc2)n1C)c1ccc(C)c(COc2cccc3ccc(C)nc23)c1C [Compound 16] | 46% | – | 58% | 132 nM | 1 % Basal | No effect | – | – | –
Cc1ccc2cccc(OCc3c(Cl)ccc(N(C)C(=O)CCc4ccc(C(=O)c5ccc(C#N)cc5)n4C)c3Cl)c2n1 [Compound 91] | 23% | – | 97.4% | – | – | – | 15 nM | Antagonist (58) | Antagonist (58) % Basal
Cc1ccc2cccc(OCc3c(Cl)ccc(N(C)C(=O)Cc4ccc(C(=O)c5ccc(C#N)cc5)n4C)c3Cl)c2n1 [Compound 76] | 22% | – | 100% | 41 nM | 79 % Basal | Antagonist | – | – | –
CCn1c(CC(=O)N(C)c2ccc(Cl)c(COc3cccc4ccc(C)nc34)c2Cl)ccc1C(=O)c1ccc(C#N)cc1 [Compound 8] | -11% | – | 44% | 13 nM | 40 % Basal | Antagonist | – | – | –
CC(=O)Nc1ccc(C(=O)c2ccc(CC(=O)N(C)c3ccc(Cl)c(COc4cccc5ccc(C)nc45)c3Cl)n2C)cc1 [Compound 74, 2-[5-(4-Acetylamino-benzoyl)-1-methyl-1 H-pyrrol-2-yl]-N-[2,4-dichloro-3-(2-methyl-quinolin-8-yloxymethyl)-phenyl]-N-methyl-acetamide] | -6% | – | 88% | 68 nM | 33 % Basal | Antagonist | – | – | –
Cc1ccc2cccc(OCc3c(Cl)ccc(N(C)C(=O)Cc4ccc(C(=O)c5ccc(S(C)(=O)=O)cc5)n4C)c3Cl)c2n1 [Compound 75, N-[2,4-Dichloro-3-(2-methyl-quinolin-8-yloxymethyl)-phenyl]-2-[5-(4-methanesulfonyl-benzoyl)-1-methyl-1 H-pyrrol-2-yl]-N-methyl-acetamide] | 50% | – | 93.3% | 47 nM | 73 % Basal | Antagonist | – | – | –
Cc1ccc2cccc(OCc3c(C)ccc(N(C)C(=O)Cc4ccc(C(=O)c5ccc(C#N)nc5)n4C)c3C)c2n1 [Compound 78] | 82 po % | 114 µmol/kg | – | 286 nM | 83 % Basal | Antagonist | – | – | –
Cc1ccc2cccc(OCc3c(C)ccc(N(C)C(=O)Cc4ccc(C(=O)c5ccc(Cl)nc5)n4C)c3C)c2n1 [Compound 77] | 70 po % | 80.9 µmol/kg | – | 306 nM | 62 % Basal | Antagonist | – | – | –
